Data taken from patent US20230295159A1, “ATX INHIBITOR, AND PREPARATION METHOD THEREFOR AND USE THEREOF” (SUZHOU ARK BIOPHARMACEUTICAL CO., LTD., priority 2020, published 2023).
Read-outs that look alike come from different tables or passages of the source.

How the values were obtained:
ATX enzyme = ATX enzyme (Homo sapiens (Human), UniProt Q13822); assay: ATX enzyme activity inhibition assay; type: biochemical; conditions: 16:0-LPC substrate, Amplex UltraRed fluorescence
Description: The tested compounds were dissolved with dimethyl sulfoxide (DMSO) to prepare 20 mM of stock solutions, the stock solutions were subjected to 4-fold gradient dilutions with DMSO, with the initial concentration of 20 µM and a total of 8 concentration gradients. 20 nL of diluted compound was transferred to a 384-well plate using Echo 550 and 5 µL of ATX enzyme solution formulated with 4 × Tris-HCl reaction buffer to the well, then the 384-well plate was centrifuged at 1000 rpm for 1 min and […] pre-incubated at room temperature for 15 min. Subsequently, 5 µL of 16:0-LPC foumulated with the above 4 × reaction buffer and 10 µL of assay solution containng 2 × Amplex UltraRed reagent, choline oxidase and horseradish peroxidase (HRP) foumulated with the same reaction buffer were added to each well, then the 384-well plate was centrifugated at 1000 rpm for 1 min. The fluorescence signals were read at an excitation wavelength of 530 nm and an emission wavelength of 590 nm by Synergy 2 microplate reader. The inhibition rate of the compound against enzyme reaction was calculated according to the fluorescence intensity ratio, and IC50 of the compound was analysed and calculated by GraphPad Prism 5 software.

[1] = test system: Chinese hamster ovary cells (CHO-WBL); assay: In vitro micronucleus assay with Chinese hamster ovary cells
Description: In the major micronucleus assay, CHO-WBL cells were exposed to at least 3 concentrations of the test object, while vehicle control group and positive control group were set up, with 2 replicated wells for each dose group. In inactivated test system, the administration lasted for 3 and 24 hours, and in S9 activated test system, the exposure to the test object lasted for 3 hours.
When choosing the highest dose for micronucleus frequency assay, the cytotoxicity of dose group of the test object should not substantially exceed 50% of that of the corresponding vehicle control group.
On the premise that the test is valid, the test results are evaluated according to the following criteria:
If the test object simutaneously meets the following criteria, it can be considered as positive:
A significant increase in micronucleus frequency is observed in one or more concentration groups.
If none of the above three points is met, the test object can be considered as negative.

[2] = Rat pharmacokinetic study; type: in vivo, SD rat; conditions: for half-life: read-out: t½ (converted)
Description: SD rat pharmacokinetic study was performed on several compounds in Examples of the present disclosure through a single intravenous injection (IV, at a dose of 2 mg/kg) and a single oral administration (PO, at a dose of 10 mg/kg), and blood samples were taken before administration and 5 min, 15 min, 30 min, 1 h, 2 h, 4 h, 8 h, 12 h and 24 h after administration, respectively, to determine the plasma concentration of the compound for assay. The pharmacokinetic data of control compound and the compounds in Examples 17, 26, 28 and 29 of the present disclosure in rat plasma are shown in Tables 4-8.

[3] = 3-hour administration with metabolic activation, 5 µg/ml

CCc1nc2ccc(-c3cnc(CC(=O)N4CC[C@@H](O)C4)cn3)cn2c1N(C)c1nc(-c2ccc(F)cc2)c(C#N)s1 [Example 13, (R)-2-((2-ethyl-6-(5-(2-(3-hydroxypyrrolidin-1-yl)-2-oxoethyl)pyrazin-2-yl)imidazo[1,2-a]pyridin-3-yl)(methyl)amino)-4-(4-fluorophenyl)thiazole-5-carbonitrile]
IC50 (ATX enzyme): 13 nM

CCc1nc2ccc(-c3cnc(CC(=O)N4CC(CO)C4)cn3)cn2c1N(C)c1nc(-c2ccc(F)cc2)c(C#N)s1 [Example 12, 2-((2-ethyl-6-(5-(2-(3-(hydroxymethyl)azetidin-1-yl)-2-oxoethyl)pyrazin-2-yl)imidazo[1,2-a]pyridin-3-yl)(methyl)amino)-4-(4-fluorophenyl)thiazole-5-carbonitrile]
IC50 (ATX enzyme): 19 nM

CCc1nc2ccc(-c3ncc(CC(=O)N4CC(O)C4)cc3F)cn2c1N(C)c1nc(-c2ccc(F)cc2)c(C#N)s1 [Example 10, 2-((2-ethyl-6-(3-fluoro-5-(2-(3-hydroxyazetidin-1-yl)-2-oxoethyl)pyridin-2-yl)imidazo[1,2-a]pyridin-3-yl)(methyl)amino)-4-(4-fluorophenyl)thiazole-5-carbonitrile]
IC50 (ATX enzyme): 18 nM

CCc1nc2ccc(-c3ccc(CC(=O)N4CC(O)C4)nc3)cn2c1N(C)c1nc(-c2ccc(F)cc2)c(C#N)s1 [Example 2, 2-((2-ethyl-6-(6-(2-(3-hydroxyazetidin-1-yl)-2-oxoethyl)pyridin-3-yl)imidazo[1,2-a]pyridin-3-yl)(methyl)amino)-4-(4-fluorophenyl)thiazole-5-carbonitrile]
IC50 (ATX enzyme): 29 nM

O=P1(N(CCCl)CCCl)NCCCO1 (centres unmarked) [Cyclophosphamide monohydrate]
% binuclear cells containing micronucleus [1, 3]: 20.8%

CCN(c1nc(-c2ccc(F)cc2)c(C#N)s1)c1c2nc(-c3cnc(N4CC(OC(C)=O)C4)nc3)ccc2nn1CC [Example 25, 1-(5-(3-((5-cyano-4-(4-fluorophenyl)thiazol-2-yl)(ethyl)amino)-2-ethyl-2H-pyrazolo[4,3-b]pyridin-5-yl)pyrimidin-2-yl)azetidin-3-yl acetate]
IC50 (ATX enzyme): 12 nM

CCc1nc2ccc(-c3cnc(C(=O)N4CC(O)C4)cn3)cn2c1N(C)c1nc(-c2ccc(F)cc2)c(C#N)s1 [Example 8, 2-((2-ethyl-6-(5-(3-hydroxyazetidin-1-carbonyl)pyrazin-2-yl)imidazo[1,2-a]pyridin-3-yl)(methyl)amino)-4-(4-fluorophenyl)thiazole-5-carbonitrile]
IC50 (ATX enzyme): 4.4 nM

CCc1nc2ccc(-c3ccc(CC(=O)N4CC(O)C4)cn3)cn2c1N(C)c1nc(-c2ccc(F)cc2)c(C#N)s1 [Example 7, 2-((2-ethyl-6-(5-(2-(3-hydroxyazetidin-1-yl)-2-oxoethyl)pyridin-2-yl)imidazo[1,2-a]pyridin-3-yl)(methyl)amino)-4-(4-fluorophenyl)thiazole-5-carbonitrile]
IC50 (ATX enzyme): 25 nM

CCc1nc2c(C)cc(N3CCN(CC(=O)N4CC(O)C4)CC3)cn2c1N(C)c1nc(-c2ccc(F)cc2)c(C#N)s1 [GLPG1690]
Cl_F_pred ([2]; IV 2 mg/kg): 7.5 mL/min/kg
Cl_F_pred ([2]; PO 10 mg/kg): 65.5 mL/min/kg
F ([2]; PO 10 mg/kg vs IV 2 mg/kg): 12%
AUC(0-inf) ([2]; SD, plasma, IV 2 mg/kg): 4460 ng·h/mL
AUC(0-t) ([2]; SD, plasma, IV 2 mg/kg): 4460 ng·h/mL
Cmax ([2]; SD, plasma, IV 2 mg/kg): 8340 ng/mL
half-life ([2]; SD, plasma, IV 2 mg/kg): 1.5 h
AUC(0-inf) ([2]; SD, plasma, PO 10 mg/kg): 2700 ng·h/mL
AUC(0-t) ([2]; SD, plasma, PO 10 mg/kg): 2680 ng·h/mL
Cmax ([2]; SD, plasma, PO 10 mg/kg): 512 ng/mL
Tmax ([2]; SD, plasma, PO 10 mg/kg): 1 h
half-life ([2]; SD, plasma, PO 10 mg/kg): 4 h
% binuclear cells containing micronucleus ([1]; 3-hour administration with metabolic activation, 2 µg/ml): 1.55%
% binuclear cells containing micronucleus [1, 3]: 1.65%
% binuclear cells containing micronucleus ([1]; 3-hour administration with metabolic activation, 10 µg/ml): 1.70%
% binuclear cells containing micronucleus ([1]; 3-hour administration with metabolic activation, 30 µg/ml): 1.85%
% binuclear cells containing micronucleus ([1]; 3-hour administration without metabolic activation, 2 µg/ml): 1.90%
% binuclear cells containing micronucleus ([1]; 3-hour administration without metabolic activation, 5 µg/ml): 1.85%
% binuclear cells containing micronucleus ([1]; 3-hour administration without metabolic activation, 10 µg/ml): 1.65%
% binuclear cells containing micronucleus ([1]; 3-hour administration without metabolic activation, 30 µg/ml): 1.85%
% binuclear cells containing micronucleus ([1]; 24-hour administration without metabolic activation, 2 µg/ml): 1.95%
% binuclear cells containing micronucleus ([1]; 24-hour administration without metabolic activation, 4 µg/ml): 1.65%
% binuclear cells containing micronucleus ([1]; 24-hour administration without metabolic activation, 6 µg/ml): 1.60%
% binuclear cells containing micronucleus ([1]; 24-hour administration without metabolic activation, 7 µg/ml): 4.85%
% binuclear cells containing micronucleus ([1]; 24-hour administration without metabolic activation, 8 µg/ml): 14.4%
potential to induce micronucleus formation in CHO-WBL cells ([1]; overall verdict over all administration series): positive

CCN(c1nc(-c2ccc(F)cc2)c(C#N)s1)c1c2nc(-c3cnc(N4CC(CO)C4)nc3)ccc2nn1CC [Example 24, 2-(ethyl(2-ethyl-5-(2-(3-(hydroxymethyl)azetidin-1-yl)pyrimidin-5-yl)-2H-pyrazolo[4,3-b]pyridin-3-yl)amino)-4-(4-fluorophenyl)thiazole-5-carbonitrile]
IC50 (ATX enzyme): 11 nM

CCc1nc2ccc(-c3cnc(C(C)(C)C(=O)N4CC(O)C4)cn3)cn2c1N(C)c1nc(-c2ccc(F)cc2)c(C#N)s1 [Example 9, 2-((2-ethyl-6-(5-(1-(3-hydroxyazetidin-1-yl)-2-methyl-1-oxopropan-2-yl)pyrazin-2-yl)imidazo[1,2-a]pyridin-3-yl)(methyl)amino)-4-(4-fluorophenyl)thiazole-5-carbonitrile]
IC50 (ATX enzyme): 28 nM

CCN(c1nc(-c2ccc(F)cc2)c(C#N)s1)c1c2nc(-c3cnc(N4CCCCS4(=O)=O)nc3)ccc2nn1CC [Example 21, 2-((5-(2-(1,1-dioxido-1,2-thiazinan-2-yl)pyrimidin-5-yl)-2-ethyl-2H-pyrazolo[4,3-b]pyridin-3-yl)(ethyl)amino)-4-(4-fluorophenyl)thiazole-5-carbonitrile]
IC50 (ATX enzyme): 11 nM

CCc1nc2ccc(-c3ccc(CC(=O)N4CC(O)C4)nn3)cn2c1N(C)c1nc(-c2ccc(F)cc2)c(C#N)s1 [Example 5, 2-((2-ethyl-6-(6-(2-(3-hydroxyazetidin-1-yl)-2-oxoethyl)pyridazin-3-yl)imidazo[1,2-a]pyridin-3-yl)(methyl)amino)-4-(4-fluorophenyl)thiazole-5-carbonitrile]
IC50 (ATX enzyme): 48 nM

CCc1nn2ccc(-c3cnc(N4CCCS4(=O)=O)nc3)nc2c1N(CC)c1nc(-c2ccc(F)cc2)c(C#N)s1 [Example 18, 2-((5-(2-(1,1-dioxidoisothiazolidin-2-yl)pyrimidin-5-yl)-2-ethyl-pyrazolo[1,5-a]pyrimidin-3-yl)(ethyl)amino)-4-(4-fluorophenyl)thiazole-5-carbonitrile]
IC50 (ATX enzyme): 15 nM

CCc1nc2ccc(-c3cnc(N4CCCS4(=O)=O)cn3)cn2c1N(CC)c1nc(-c2ccc(F)cc2)c(C#N)s1 [Example 19, 2-((6-(5-(1,1-dioxidoisothiazolidin-2-yl)pyrazin-2-yl)-2-ethylimidazo[1,2-a]pyridin-3-yl)(ethyl)amino)-4-(4-fluorophenyl)thiazole-5-carbonitrile]
IC50 (ATX enzyme): 17 nM

CCc1nc2ccc(-c3cnc(N(C)S(C)(=O)=O)nc3)cn2c1N(CC)c1nc(-c2ccc(F)cc2)c(C#N)s1 [Example 20, N-(5-(3-((5-cyano-4-(4-fluorophenyl)thiazol-2-yl)(ethyl)amino)-2-ethylimidazo[1,2-a]pyridin-6-yl)pyrimidin-2-yl)-N-methylmethanesulfonamide]
IC50 (ATX enzyme): 45 nM

CCc1nc2ccc(-c3ccc(CC(=O)N4CC(O)C4)nc3C)cn2c1N(C)c1nc(-c2ccc(F)cc2)c(C#N)s1 [Example 6, 2-((2-ethyl-6-(6-(2-(3-hydroxyazetidin-1-yl)-2-oxoethyl)-2-methylpyridin-3-yl)imidazo[1,2-a]pyridin-3-yl)(methyl)amino)-4-(4-fluorophenyl)thiazole-5-carbonitrile]
IC50 (ATX enzyme): 29 nM

CCc1nc2ccc(-c3cnc(C(=O)NC4CC5(CNC5)C4)cn3)cn2c1N(C)c1nc(-c2ccc(F)cc2)c(C#N)s1 [Example 15, 5-(3-((5-cyano-4-(4-fluorophenyl)thiazol-2-yl)(methyl)amino)-2-ethylimidazo[1,2-a]pyridin-6-yl)-N-(2-azaspiro[3.3]heptan-6-yl)pyrazin-2-carboxamide]
IC50 (ATX enzyme): 40 nM

CCc1nc2ccc(-c3ccc(CC(=O)N4CC(O)C4)cc3)cn2c1N(C)c1nc(-c2ccc(F)cc2)c(C#N)s1 [Example 1, 2-((2-ethyl-6-(4-(2-(3-hydroxyazetidin-1-yl)-2-oxoethyl)phenyl)imidazo[1,2-a]pyridin-3-yl)(methyl)amino)-4-(4-fluorophenyl)thiazole-5-carbonitrile]
IC50 (ATX enzyme): 30 nM
